Results published in US10669242B2 (priority 2016, dated 2020).
pIC50: −log10 of the molar value.

Each compound was assayed against T1, recombinant glucosyltransferase domain of C. difficile Toxin B/TcdB (Clostridioides difficile, UniProt P18177) (assay: biochemical).
T1 construct: 6-His (C); purchased R&D Systems 6246-GT
T1 sequence (P18177 1-543): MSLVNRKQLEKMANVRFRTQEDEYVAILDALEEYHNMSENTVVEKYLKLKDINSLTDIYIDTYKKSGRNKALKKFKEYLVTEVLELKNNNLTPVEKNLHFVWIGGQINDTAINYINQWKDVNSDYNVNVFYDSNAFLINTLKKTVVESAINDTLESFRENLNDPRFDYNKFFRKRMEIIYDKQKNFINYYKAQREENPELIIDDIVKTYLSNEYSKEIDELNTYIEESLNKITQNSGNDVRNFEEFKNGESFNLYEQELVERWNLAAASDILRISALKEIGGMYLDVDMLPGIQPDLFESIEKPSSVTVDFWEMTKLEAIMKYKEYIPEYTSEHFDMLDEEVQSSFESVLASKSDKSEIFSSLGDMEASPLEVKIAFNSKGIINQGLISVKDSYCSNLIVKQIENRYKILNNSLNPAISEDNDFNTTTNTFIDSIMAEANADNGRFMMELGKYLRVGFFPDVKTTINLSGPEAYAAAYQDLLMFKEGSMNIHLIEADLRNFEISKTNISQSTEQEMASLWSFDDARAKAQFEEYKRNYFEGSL

Row | SMILES | pIC50
1 | O=C(Nc1ccc(F)cn1)c1ccc(CN2C(=O)c3ccc(Cl)cc3NC(=O)[C@H]2Cc2ccccn2)cc1F [Example 6c, (R)-4-((8-chloro-2,5-dioxo-3-(pyridin-2-ylmethyl)-2,3-dihydro-1H-benzo[e][1,4]diazepin-4(5H)-yl)methyl)-2-fluoro-N-(5-fluoropyridin-2-yl)benzamide] | > 7.00
2 | Cc1ccc(NC(=O)c2ccc(CN3C(=O)c4ccc(Cl)cc4NC(=O)[C@H]3Cc3ccccn3)cc2F)nc1 [Example 6d, (R)-4-((8-chloro-2,5-dioxo-3-(pyridin-2-ylmethyl)-2,3-dihydro-1H-benzo[e][1,4]diazepin-4(5H)-yl)methyl)-2-fluoro-N-(5-methylpyridin-2-yl)benzamide] | > 7.00
3 | O=C1Nc2cc(Cl)ccc2C(=O)N(Cc2ccc(C(=O)N3CCc4cccnc43)c(F)c2)[C@@H]1Cc1ccccn1 [Example 6e, (R)-8-chloro-4-(4-(2,3-dihydro-1H-pyrrolo[2,3-b]pyridine-1-carbonyl)-3-fluorobenzyl)-3-(pyridin-2-ylmethyl)-3,4-dihydro-1H-benzo[e][1,4]diazepine-2,5-dione] | 6.00 to 7.00
4 | Cc1cnc2c(c1)CCN2C(=O)c1ccc(CN2C(=O)c3ccc(Cl)cc3NC(=O)[C@H]2Cc2ccccn2)cc1F [Example 6f, (R)-8-chloro-4-(3-fluoro-4-(5-methyl-2,3-dihydro-1H-pyrrolo[2,3-b]pyridine-1-carbonyl)benzyl)-3-(pyridin-2-ylmethyl)-3,4-dihydro-1H-benzo[e][1,4]diazepine-2,5-dione] | > 7.00
5 | O=C(O)c1ccc(CN2C(=O)c3ccc(Cl)cc3NC(=O)[C@H]2Cc2ccccn2)cc1Cl [Example 7a, (R)-2-Chloro-4-((8-chloro-2,5-dioxo-3-(pyridin-2-ylmethyl)-2,3-dihydro-1H-benzo[e][1,4]diazepin-4(5H)-yl)methyl)benzoic Acid] | 6.00 to 7.00
6 | Cc1cc(CN2C(=O)c3ccc(Cl)cc3NC(=O)[C@H]2Cc2ccccn2)ccc1C(=O)O [Example 7b, (R)-4-((8-chloro-2,5-dioxo-3-(pyridin-2-ylmethyl)-2,3-dihydro-1H-benzo[e][1,4]diazepin-4(5H)-yl)methyl)-2-methylbenzoic acid] | 6.00 to 7.00
7 | O=C(O)c1c(Cl)cc(CN2C(=O)c3ccc(Cl)cc3NC(=O)[C@H]2Cc2ccccn2)cc1Cl [Example 7c, (R)-2,6-dichloro-4-((8-chloro-2,5-dioxo-3-(pyridin-2-ylmethyl)-2,3-dihydro-1H-benzo[e][1,4]diazepin-4(5H)-yl)methyl)benzoic acid] | 5.00 to 6.00
8 | COc1cc(CN2C(=O)c3ccc(Cl)cc3NC(=O)[C@H]2Cc2ccccn2)ccc1C(=O)O [Example 7d, (R)-4-((8-chloro-2,5-dioxo-3-(pyridin-2-ylmethyl)-2,3-dihydro-1H-benzo[e][1,4]diazepin-4(5H)-yl)methyl)-2-methoxybenzoic acid] | 6.00 to 7.00
9 | O=C(O)c1ccc(CN2C(=O)c3ccc(Cl)cc3NC(=O)[C@H]2Cc2ccccn2)cc1-c1ccncc1 [Example 8a, (R)-4-((8-Chloro-2,5-dioxo-3-(pyridin-2-ylmethyl)-2,3-dihydro-1H-benzo[e][1,4]diazepin-4(5H)-yl)methyl)-2-(pyridin-4-yl)benzoic Acid] | 6.00 to 7.00
10 | COc1cccc(-c2cc(CN3C(=O)c4ccc(Cl)cc4NC(=O)[C@H]3Cc3ccccn3)ccc2C(=O)O)c1 [Example 8b, (R)-5-((8-chloro-2,5-dioxo-3-(pyridin-2-ylmethyl)-2,3-dihydro-1H-benzo[e][1,4]diazepin-4(5H)-yl)methyl)-3′-methoxy-[1,1′-biphenyl]-2-carboxylic acid] | 6.00 to 7.00
11 | O=C(O)c1ccc(CN2C(=O)c3ccc(Cl)cc3NC(=O)[C@H]2Cc2ccccn2)cc1-c1ccc2c(c1)OCO2 [Example 8c, (R)-2-(benzo[d][1,3]dioxol-5-yl)-4-((8-chloro-2,5-dioxo-3-(pyridin-2-ylmethyl)-2,3-dihydro-1H-benzo[e][1,4]diazepin-4(5H)-yl)methyl)benzoic acid] | 6.00 to 7.00
12 | O=C(O)c1ccc(CN2C(=O)c3ccc(Cl)cc3NC(=O)[C@H]2Cc2ccccn2)cc1-c1ccc(F)cc1 [Example 8d, (R)-5-((8-chloro-2,5-dioxo-3-(pyridin-2-ylmethyl)-2,3-dihydro-1H-benzo[e][1,4]diazepin-4(5H)-yl)methyl)-4′-fluoro-[1,1′-biphenyl]-2-carboxylic acid] | 6.00 to 7.00
13 | O=C(O)c1ccc(CN2C(=O)c3ccc(Cl)cc3NC(=O)[C@H]2Cc2ccccn2)cc1-c1ccccc1 [Example 8e, (R)-5-((8-chloro-2,5-dioxo-3-(pyridin-2-ylmethyl)-2,3-dihydro-1H-benzo[e][1,4]diazepin-4(5H)-yl)methyl)-[1,1′-biphenyl]-2-carboxylic acid] | 6.00 to 7.00
14 | COc1ccc(-c2cc(CN3C(=O)c4ccc(Cl)cc4NC(=O)[C@H]3Cc3ccccn3)ccc2C(=O)O)cc1 [Example 8f, (R)-5-((8-chloro-2,5-dioxo-3-(pyridin-2-ylmethyl)-2,3-dihydro-1H-benzo[e][1,4]diazepin-4(5H)-yl)methyl)-4′-methoxy-[1,1′-biphenyl]-2-carboxylic acid] | 6.00 to 7.00
15 | Cc1ccc(-c2cc(CN3C(=O)c4ccc(Cl)cc4NC(=O)[C@H]3Cc3ccccn3)ccc2C(=O)O)cc1 [Example 8g, (R)-5-((8-chloro-2,5-dioxo-3-(pyridin-2-ylmethyl)-2,3-dihydro-1H-benzo[e][1,4]diazepin-4(5H)-yl)methyl)-4′-methyl-[1,1′-biphenyl]-2-carboxylic acid] | 6.00 to 7.00
16 | Cc1cccc(-c2cc(CN3C(=O)c4ccc(Cl)cc4NC(=O)[C@H]3Cc3ccccn3)ccc2C(=O)O)c1 [Example 8h, (R)-5-((8-chloro-2,5-dioxo-3-(pyridin-2-ylmethyl)-2,3-dihydro-1H-benzo[e][1,4]diazepin-4(5H)-yl)methyl)-3′-methyl-[1,1′-biphenyl]-2-carboxylic acid] | 6.00 to 7.00
17 | O=C(O)c1ccc(CN2C(=O)c3ccc(Cl)cc3NC(=O)[C@H]2Cc2ccccn2)cc1-c1ccc(Cl)cc1 [Example 8i, (R)-4′-chloro-5-((8-chloro-2,5-dioxo-3-(pyridin-2-ylmethyl)-2,3-dihydro-1H-benzo[e][1,4]diazepin-4(5H)-yl)methyl)-[1,1′-biphenyl]-2-carboxylic acid] | 6.00 to 7.00
18 | O=C(O)c1ccc(CN2C(=O)c3ccc(Cl)cc3NC(=O)[C@H]2Cc2ccccn2)cc1-c1cccc(Cl)c1 [Example 8j, (R)-3′-chloro-5-((8-chloro-2,5-dioxo-3-(pyridin-2-ylmethyl)-2,3-dihydro-1H-benzo[e][1,4]diazepin-4(5H)-yl)methyl)-[1,1′-biphenyl]-2-carboxylic acid] | 6.00 to 7.00
19 | O=C(O)c1ccc(CN2C(=O)c3ccc(Cl)cc3NC(=O)[C@H]2Cc2ccccn2)cc1-c1cccc(F)c1 [Example 8k, (R)-5-((8-chloro-2,5-dioxo-3-(pyridin-2-ylmethyl)-2,3-dihydro-1H-benzo[e][1,4]diazepin-4(5H)-yl)methyl)-3′-fluoro-[1,1′-biphenyl]-2-carboxylic acid] | 6.00 to 7.00
20 | O=C(O)c1ccc(CN2C(=O)c3ccc(Cl)cc3NC(=O)[C@H]2Cc2ccccn2)cc1-c1ccc(F)c(Cl)c1 [Example 8l, (R)-3′-chloro-5-((8-chloro-2,5-dioxo-3-(pyridin-2-ylmethyl)-2,3-dihydro-1H-benzo[e][1,4]diazepin-4(5H)-yl)methyl)-4′-fluoro-[1,1′-biphenyl]-2-carboxylic acid] | 6.00 to 7.00
